Measured values: US20210221866A1, “PROTEASE-RESISTANT LIPIDATED GLP-1 ANALOGS” (MEDIMMUNE LIMITED, priority 2015, published 2021)
Like-named read-outs stand apart in the source and are kept apart here. Numbered stars: 1 amine (or outer) side, 2 acyl side, 3 side chain; on linkers, the order of the positions; unused ones are H or OH. Square brackets hold non-standard residues; d marks the D form. Side chains are listed from the residue outwards. Peptide text beside a SMILES is read from it. * marks the point of attachment. C18 diacid = O=C(O)CCCCCCCCCCCCCCCCC(=O)*; γGlu = O=C(O)[C@H](CCC(=O)[*:2])N[*:1]; αMeF = C[C@](N)(Cc1ccccc1)C(=O)O; αMeK = C[C@](N)(CCCCN)C(=O)O; αMeS = C[C@](N)(CO)C(=O)O; AEEA = NCCOCCOCC(=O)O; Aib = CC(C)(N)C(=O)O

Assays:
Format in all cases: cell-based
GLP-1R (INS1e cells) = target: T1, GLP-1R (INS1e cells) (Rattus norvegicus, UniProt P32301); test: INS1e assay, cAMP activity at GLP-1R; conditions: Table 8, substituted and mono-lipidated peptides
T1 construct: endogenous in cells; host or cells: INS1e cells
T1 sequence (P32301 22-463): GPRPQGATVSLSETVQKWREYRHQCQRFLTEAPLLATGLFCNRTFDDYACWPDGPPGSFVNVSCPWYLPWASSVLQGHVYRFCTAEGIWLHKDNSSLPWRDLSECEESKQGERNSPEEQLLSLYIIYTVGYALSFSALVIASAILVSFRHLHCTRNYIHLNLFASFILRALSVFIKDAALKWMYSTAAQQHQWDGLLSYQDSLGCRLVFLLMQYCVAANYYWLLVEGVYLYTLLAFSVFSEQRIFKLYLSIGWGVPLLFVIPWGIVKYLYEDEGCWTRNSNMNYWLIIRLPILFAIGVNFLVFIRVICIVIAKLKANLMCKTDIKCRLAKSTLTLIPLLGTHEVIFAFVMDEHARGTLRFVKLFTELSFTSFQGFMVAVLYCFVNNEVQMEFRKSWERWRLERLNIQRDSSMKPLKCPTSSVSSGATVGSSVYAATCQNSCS

[1] = target: T2, human glucagon receptor (GCGR) (Homo sapiens, UniProt P47871); test: cAMP assay, human GCGR cells; conditions: cAMP activity; second determination (n2); read-out: Primary assay EC50 Gluc-R
T2 construct: expressed in transfected cells; host or cells: HEK293 cells or CHO cells
T2 sequence (P47871 26-477): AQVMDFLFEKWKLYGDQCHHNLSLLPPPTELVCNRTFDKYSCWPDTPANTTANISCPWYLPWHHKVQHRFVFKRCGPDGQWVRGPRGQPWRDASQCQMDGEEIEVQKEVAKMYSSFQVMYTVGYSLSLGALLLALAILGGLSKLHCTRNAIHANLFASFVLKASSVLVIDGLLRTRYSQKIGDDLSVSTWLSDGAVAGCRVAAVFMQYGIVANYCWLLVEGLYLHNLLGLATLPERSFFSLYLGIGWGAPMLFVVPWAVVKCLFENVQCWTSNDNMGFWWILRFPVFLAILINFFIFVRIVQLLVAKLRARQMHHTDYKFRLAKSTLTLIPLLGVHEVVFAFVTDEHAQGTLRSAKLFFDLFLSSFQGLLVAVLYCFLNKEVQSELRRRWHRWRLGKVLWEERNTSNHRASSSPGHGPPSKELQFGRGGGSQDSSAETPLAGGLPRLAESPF
Outline: (§1)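 Peptide-stimulated cAMP measured by two-step HTRF after a 30 min room-temperature incubation with receptor-expressing cells (hGLP-1R, hGIPR at 1×10^5 cells/ml; hGCGR at 2×10^5 cells/ml). Duplicate dilutions; EC50 from 4-parameter logistic fit of % Delta F.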

[2] = target: T3, human glucose-dependent insulinotropic peptide receptor (GIPR) (Homo sapiens, UniProt P48546); test: cAMP assay, human GIPR cells; conditions: cAMP activity, read-out: Primary assay EC50 GIP-R
T3 construct: expressed in transfected cells; host or cells: HEK293 cells or CHO cells
T3 sequence (P48546 22-466): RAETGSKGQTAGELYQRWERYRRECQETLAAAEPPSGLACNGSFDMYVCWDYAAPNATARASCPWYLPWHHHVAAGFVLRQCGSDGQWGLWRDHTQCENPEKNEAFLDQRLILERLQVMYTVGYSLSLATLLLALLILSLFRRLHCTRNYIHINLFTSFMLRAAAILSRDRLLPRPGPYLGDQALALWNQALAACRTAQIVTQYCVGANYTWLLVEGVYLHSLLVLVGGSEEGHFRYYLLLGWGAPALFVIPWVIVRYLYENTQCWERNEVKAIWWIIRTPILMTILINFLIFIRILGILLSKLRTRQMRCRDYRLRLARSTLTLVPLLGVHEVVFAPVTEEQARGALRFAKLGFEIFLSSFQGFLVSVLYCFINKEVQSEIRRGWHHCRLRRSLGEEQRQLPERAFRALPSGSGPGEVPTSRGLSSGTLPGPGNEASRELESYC
Outline: as §1

[3] = target: T4, human GLP-1 receptor (GLP-1R) (Homo sapiens, UniProt P43220); test: cAMP assay, human GLP-1R cells; conditions: cAMP activity
T4 construct: expressed in transfected cells; host or cells: HEK293 cells or CHO cells
T4 sequence (P43220 24-463): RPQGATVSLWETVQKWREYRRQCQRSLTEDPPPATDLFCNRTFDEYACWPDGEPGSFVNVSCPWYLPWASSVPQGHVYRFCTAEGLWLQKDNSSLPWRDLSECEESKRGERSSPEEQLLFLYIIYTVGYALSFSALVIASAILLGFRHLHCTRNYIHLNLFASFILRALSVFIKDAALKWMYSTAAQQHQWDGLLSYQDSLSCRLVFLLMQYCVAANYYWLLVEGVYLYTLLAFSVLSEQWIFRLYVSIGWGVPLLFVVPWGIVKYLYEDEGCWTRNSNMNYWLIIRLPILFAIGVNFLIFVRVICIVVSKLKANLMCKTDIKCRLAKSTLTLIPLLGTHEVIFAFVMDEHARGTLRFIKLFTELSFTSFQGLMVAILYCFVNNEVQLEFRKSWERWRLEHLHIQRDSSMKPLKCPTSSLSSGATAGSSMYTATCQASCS
Outline: as §1

[4] = mean of n1 and n2, read-out: INS1e assay EC50 Mean pM GLP-1R
[5] = replicate n1, read-out: INS1e assay EC50 GLP-1R n1
[6] = replicate n2, read-out: INS1e assay EC50 GLP-1R n2
[7] = first determination (n1), read-out: Primary assay EC50 GLP-1R n1
[8] = mean of n1 and n2, read-out: Mean pM GLP-1R
[9] = second determination (n2), read-out: Primary assay EC50 GLP-1R n2

Row | EC50 (GLP-1R (INS1e cells); [4]) | EC50 (GLP-1R (INS1e cells); [5]) | EC50 (GLP-1R (INS1e cells); [6]) | EC50 [1] | EC50 ([2]; first determination (n1)) | EC50 ([2]; second determination (n2)) | EC50 [3, 7] | EC50 [3, 8] | EC50 [3, 9] | Structure (SMILES)
1 | 9670 pM | 7130 pM | 12200 pM | ≥ 25 nM | ≥ 25 nM | ≥ 25 nM | 37 pM | 43.3 pM | 50 pM | CC[C@H](C)[C@H](NC(=O)[C@](C)(Cc1ccccc1)NC(=O)[C@H](CCC(=O)O)NC(=O)[C@H](CCCCNC(=O)COCCOCCNC(=O)COCCOCCNC(=O)CC[C@H](NC(=O)CCCCCCCCCCCCCCCCC(=O)O)C(=O)O)NC(=O)[C@H](C)NC(=O)[C@H](C)NC(=O)[C@H](CCC(=O)O)NC(=O)CNC(=O)[C@H](CCC(=O)O)NC(=O)[C@H](CC(C)C)NC(=O)[C@H](Cc1ccc(O)cc1)NC(=O)[C@H](CO)NC(=O)[C@](C)(CO)NC(=O)[C@@H](NC(=O)[C@H](CC(=O)O)NC(=O)[C@H](CO)NC(=O)[C@@H](NC(=O)[C@](C)(Cc1ccccc1)NC(=O)[C@H](CO)NC(=O)CNC(=O)[C@H](CCC(=O)O)NC(=O)C(C)(C)NC(=O)[C@@H](N)Cc1c[nH]cn1)[C@@H](C)O)C(C)C)C(=O)N[C@@H](C)C(=O)N[C@@](C)(Cc1ccccc1)C(=O)N[C@H](C(=O)N[C@H](C(=O)N[C@@](C)(CCCCN)C(=O)NCC(=O)NCC(N)=O)C(C)C)C(C)C [compound 47] (H-H[Aib]EGS[αMeF]TSDV[αMeS]SYLEGEAAK([AEEA-AEEA-γGlu-C18 diacid])E[αMeF]IA[αMeF]VV[αMeK]GG-NH2; N-terminus assumed)
2 | 3560 pM | 4220 pM | 2890 pM | ≥ 25.2 nM | ≥ 25 nM | ≥ 25.2 nM | 24 pM | 22 pM | 20.6 pM | CC[C@H](C)[C@H](NC(=O)[C@](C)(Cc1ccccc1)NC(=O)[C@H](CCC(=O)O)NC(=O)[C@](C)(CCCCN)NC(=O)[C@H](C)NC(=O)[C@H](C)NC(=O)[C@H](CCC(=O)O)NC(=O)CNC(=O)[C@H](CCC(=O)O)NC(=O)[C@H](CC(C)C)NC(=O)[C@](C)(Cc1ccccc1)NC(=O)[C@H](CO)NC(=O)[C@](C)(CO)NC(=O)[C@@H](NC(=O)[C@H](CC(=O)O)NC(=O)[C@H](CO)NC(=O)[C@@H](NC(=O)[C@](C)(Cc1ccccc1)NC(=O)[C@H](CO)NC(=O)CNC(=O)[C@H](CCC(=O)O)NC(=O)C(C)(C)NC(=O)[C@@H](N)Cc1c[nH]cn1)[C@@H](C)O)C(C)C)C(=O)N[C@@H](C)C(=O)N[C@@](C)(Cc1ccccc1)C(=O)N[C@H](C(=O)N[C@@H](CCCCNC(=O)COCCOCCNC(=O)COCCOCCNC(=O)CC[C@H](NC(=O)CCCCCCCCCCCCCCCCC(=O)O)C(=O)O)C(=O)N[C@@](C)(CCCCN)C(=O)NCC(=O)NCC(N)=O)C(C)C [compound 102] (H-H[Aib]EGS[αMeF]TSDV[αMeS]S[αMeF]LEGEAA[αMeK]E[αMeF]IA[αMeF]VK([AEEA-AEEA-γGlu-C18 diacid])[αMeK]GG-NH2)
